Experimental data taken from patent publication US4013777A, “Bis-phenoxypropanolamines” (SmithKline Corporation, priority 1975, dated 1977).
In brackets after ≈: the same amount, converted by molar mass.

Columns and labels:
[1] = system: guinea pig tracheal chain preparations; test: spontaneous tone of guinea pig tracheal chain (ring) preparation, relaxant effect; settings: for absolute separation ratio: atrial ED25 versus tracheal ED50, guinea pig in vitro preparations
Text: (§1) Two in vitro test systems used for determining selective β-stimulant activity are: (1) effect on spontaneous tone of guinea pig tracheal chain preparations as a measure of β-stimulant (direct relaxant) effect on airway smooth muscle, and (2) effect on rate of spontaneously beating right atria of the guinea pig as a measure of β-stimulant effect on cardiac muscle.

[2] = system: right atria of the guinea pig; test: rate of spontaneously beating guinea pig right atria; settings: Cavia porcellus; in vitro; β-stimulant effect on cardiac muscle; read-out: ED25, increasing the rate of contraction of guinea pig right atria
Text: as §1

Structure (SMILES) | EC50 ([1]; Cavia porcellus, in vitro, β-stimulant (direct relaxant) effect on airway smooth muscle, read-out: ED50, relaxes the spontaneous tone of guinea pig tracheal ring preparation) | absolute separation ratio [1] | improvement of absolute separation ratio compared to d,l isoproterenol ([1]; versus d,l isoproterenol in similar in vitro preparations) | EC25 [2]
Oc1ccc(OCC(O)CNCCCCCCNCC(O)COc2ccc(O)c(O)c2)cc1O (centres unmarked) [N,N'-bis[3,4-dihydroxyphenoxy)-2-hydroxypropyl]-1,6-diaminohexane] | 4.14 ng/mL (≈ 0.00861 µM) | 7 | 14 fold | 0.029 µg/mL (≈ 0.0603 µM)
CC(C)NCC(O)c1ccc(O)c(O)c1 (racemic) [d,l isoproterenol, reference compound] | – | 0.5 | – | –
